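Protocol summary: plate cells (96-well), add compound at 5 concentrations, incubate 48 h, interpolate endpoints linearly. The concentration for 50% growth inhibition is given as GI50. At the TGI there is no net growth.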
Experiments:
Experiment in all cases: growth of human tumour cells (NCI), 48 h
NCI-H226 lung = system: NCI-H226 lung
NCI-H460 lung = system: NCI-H460 lung
NCI-H522 lung = system: NCI-H522 lung
NCI/ADR-RES ovarian = system: NCI/ADR-RES ovarian
OVCAR-3 ovarian = system: OVCAR-3 ovarian
OVCAR-4 ovarian = system: OVCAR-4 ovarian
OVCAR-5 ovarian = system: OVCAR-5 ovarian
OVCAR-8 ovarian = system: OVCAR-8 ovarian
PC-3 prostate = system: PC-3 prostate
RPMI-8226 leukemia = system: RPMI-8226 leukemia
RXF 393 renal = system: RXF 393 renal
SF-268 CNS = system: SF-268 CNS
SF-295 CNS = system: SF-295 CNS
SF-539 CNS = system: SF-539 CNS
SK-MEL-2 melanoma = system: SK-MEL-2 melanoma
SK-MEL-28 melanoma = system: SK-MEL-28 melanoma
SK-MEL-5 melanoma = system: SK-MEL-5 melanoma
SK-OV-3 ovarian = system: SK-OV-3 ovarian
SN12C renal = system: SN12C renal
SNB-19 CNS = system: SNB-19 CNS
SNB-75 CNS = system: SNB-75 CNS
SR leukemia = system: SR leukemia
SW-620 colon = system: SW-620 colon
T-47D breast = system: T-47D breast
U251 CNS = system: U251 CNS
UACC-257 melanoma = system: UACC-257 melanoma
UACC-62 melanoma = system: UACC-62 melanoma
UO-31 renal = system: UO-31 renal

CC1(C)N=C(N)N=C(N)N1c1ccc(OCCCCNC(=O)Nc2cccc(S(=O)(=O)F)c2)c(Cl)c1
TGI (NCI-H226 lung): > 100 µM | GI50 (NCI-H460 lung): 0.377 µM | TGI (NCI-H460 lung): 25.3 µM | GI50 (NCI-H522 lung): 1.83 µM | TGI (NCI-H522 lung): 69.7 µM | GI50 (NCI/ADR-RES ovarian): > 100 µM | TGI (NCI/ADR-RES ovarian): > 100 µM | GI50 (OVCAR-3 ovarian): 6.89 µM | TGI (OVCAR-3 ovarian): > 100 µM | GI50 (OVCAR-4 ovarian): 13.3 µM | TGI (OVCAR-4 ovarian): > 100 µM | GI50 (OVCAR-5 ovarian): 2.26 µM | TGI (OVCAR-5 ovarian): > 100 µM | GI50 (OVCAR-8 ovarian): 4.28 µM | TGI (OVCAR-8 ovarian): > 100 µM | GI50 (PC-3 prostate): 0.0995 µM | TGI (PC-3 prostate): > 100 µM | GI50 (RPMI-8226 leukemia): 3 µM | TGI (RPMI-8226 leukemia): 93.3 µM | GI50 (RXF 393 renal): 0.735 µM | TGI (RXF 393 renal): > 100 µM | GI50 (SF-268 CNS): 0.649 µM | TGI (SF-268 CNS): > 100 µM | GI50 (SF-295 CNS): 5.59 µM | TGI (SF-295 CNS): > 100 µM | GI50 (SF-539 CNS): 1.27 µM | TGI (SF-539 CNS): 8.5 µM | GI50 (SK-MEL-2 melanoma): 13.6 µM | TGI (SK-MEL-2 melanoma): > 100 µM | GI50 (SK-MEL-28 melanoma): 6.04 µM | TGI (SK-MEL-28 melanoma): > 100 µM | GI50 (SK-MEL-5 melanoma): 1.11 µM | TGI (SK-MEL-5 melanoma): 23.7 µM | GI50 (SK-OV-3 ovarian): > 100 µM | TGI (SK-OV-3 ovarian): > 100 µM | GI50 (SN12C renal): 0.577 µM | TGI (SN12C renal): > 100 µM | GI50 (SNB-19 CNS): 2.91 µM | TGI (SNB-19 CNS): > 100 µM | GI50 (SNB-75 CNS): 2.98 µM | TGI (SNB-75 CNS): 48.7 µM | GI50 (SR leukemia): 1.02 µM | TGI (SR leukemia): > 100 µM | GI50 (SW-620 colon): 0.657 µM | TGI (SW-620 colon): > 100 µM | GI50 (T-47D breast): 15.8 µM | TGI (T-47D breast): > 100 µM | GI50 (U251 CNS): 0.674 µM | TGI (U251 CNS): > 100 µM | GI50 (UACC-257 melanoma): 3.73 µM | TGI (UACC-257 melanoma): > 100 µM | GI50 (UACC-62 melanoma): 0.491 µM | TGI (UACC-62 melanoma): > 100 µM | GI50 (UO-31 renal): 40.5 µM | TGI (UO-31 renal): > 100 µM
